In the supplement of paper PMC10307832:

Legend:
Test in all cases: relative viability (nuclei count vs DMSO), 5 days (fraction); higher = more cells survive
Serdemetan + Trametinib = compound: c1ccc2c(CCNc3ccc(Nc4ccncc4)cc3)c[nH]c2c1 [Serdemetan] + CC(=O)Nc1cccc(-n2c(=O)n(C3CC3)c(=O)c3c(Nc4ccc(I)cc4F)n(C)c(=O)c(C)c32)c1 [Trametinib] (partner 0.02 µM)
In short: (§1)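 Cells from lung cancer lines were seeded into 1536-well plates and, one day later, dosed by pin tool. Treatments were either a single drug or a fixed dose of an anchor drug with five library-drug doses (not always all listed) in √10 steps. After 5 days, nuclei were stained in a one-step fixation (final 0.05% Triton X-100, 1% formaldehyde, 1 ug/ml Hoechst) and counted on 4× images, and relative viability is the treated-to-vehicle nuclei ratio, as the median of duplicate plates.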

Serdemetan + Pictilisib = compound: c1ccc2c(CCNc3ccc(Nc4ccncc4)cc3)c[nH]c2c1 [Serdemetan] + CS(=O)(=O)N1CCN(Cc2cc3nc(-c4cccc5[nH]ncc45)nc(N4CCOCC4)c3s2)CC1 [Pictilisib] (partner 1 µM)
In short: as §1

Selisistat + Dasatinib = compound: C1CC(C2=C(C1)C3=C(N2)C=CC(=C3)Cl)C(=O)N [Selisistat] + Cc1nc(Nc2ncc(C(=O)Nc3c(C)cccc3Cl)s2)cc(N2CCN(CCO)CC2)n1 [Dasatinib] (partner 0.075 µM)
In short: as §1

Serdemetan + Foretinib = compound: c1ccc2c(CCNc3ccc(Nc4ccncc4)cc3)c[nH]c2c1 [Serdemetan] + COc1cc2c(Oc3ccc(NC(=O)C4(C(=O)Nc5ccc(F)cc5)CC4)cc3F)ccnc2cc1OCCCN1CCOCC1 [Foretinib] (partner 0.25 µM)
In short: as §1

Cell Line | relative viability (Serdemetan + Trametinib; first compound 0.04 µM) | relative viability (Serdemetan + Trametinib; first compound 0.1265 µM) | relative viability (Serdemetan + Trametinib; first compound 0.4 µM) | relative viability (Serdemetan + Trametinib; first compound 1.265 µM) | relative viability (Serdemetan + Trametinib; first compound 4 µM) | relative viability (Serdemetan + Pictilisib; first compound 0.04 µM) | relative viability (Serdemetan + Pictilisib; first compound 0.1265 µM) | relative viability (Serdemetan + Pictilisib; first compound 0.4 µM) | relative viability (Serdemetan + Pictilisib; first compound 1.265 µM) | relative viability (Serdemetan + Pictilisib; first compound 4 µM) | relative viability (Selisistat + Dasatinib; first compound 0.4 µM) | relative viability (Selisistat + Dasatinib; first compound 1.265 µM) | relative viability (Selisistat + Dasatinib; first compound 4 µM) | relative viability (Selisistat + Dasatinib; first compound 12.65 µM) | relative viability (Selisistat + Dasatinib; first compound 40 µM) | relative viability (Serdemetan + Foretinib; first compound 0.04 µM) | relative viability (Serdemetan + Foretinib; first compound 0.1265 µM) | relative viability (Serdemetan + Foretinib; first compound 1.265 µM) | relative viability (Serdemetan + Foretinib; first compound 4 µM) | relative viability (Serdemetan + Foretinib; first compound 0.4 µM)
HCC-44 | 1.08 | 1.05 | 0.968 | 0.964 | 0.837 | 0.513 | 0.668 | 0.501 | 0.481 | 0.689 |  |  |  |  |  |  |  |  |  | 
HCC-827 | 0.543 | 0.603 |  | 0.359 | 0.318 | 0.921 | 0.712 |  | 0.575 | 0.824 | 0.393 | 0.38 | 0.306 | 0.421 | 0.301 | 0.991 | 0.948 | 0.594 | 0.62 | 
NCI-H1623 |  |  |  |  |  |  |  |  |  |  | 0.518 | 0.587 | 0.41 | 0.551 | 0.57 | 0.901 | 0.917 | 0.756 | 0.703 | 0.698
NCI-H2347 | 0.286 | 0.253 | 0.289 | 0.259 | 0.25 | 0.718 | 0.517 | 0.71 | 0.69 | 0.464 | 0.343 | 0.299 | 0.171 | 0.344 | 0.31 | 1.08 | 0.831 | 0.954 | 0.604 | 0.89
PC-14 | 0.798 | 0.747 |  | 0.647 | 0.601 | 0.626 | 0.631 | 0.596 | 0.634 | 0.367 | 0.259 | 0.302 | 0.279 | 0.289 | 0.3 | 0.862 | 0.939 | 0.83 | 1.1 | 0.376
NCI-H1651 | 0.848 | 0.784 | 0.775 | 0.433 | 0.256 | 0.434 | 0.496 | 0.433 | 0.456 | 0.23 | 0.434 | 0.378 | 0.359 | 0.348 | 0.34 | 0.724 | 0.515 | 0.465 | 0.235 | 0.407
HARA | 0.529 | 0.658 | 0.649 | 0.42 | 0.641 | 0.385 | 0.411 | 0.408 |  | 0.347 | 0.25 | 0.299 | 0.202 | 0.166 | 0.264 | 0.84 | 0.903 | 0.585 | 0.452 | 0.871
NCI-H1650 | 0.58 | 0.633 | 0.49 | 0.611 | 0.516 | 0.57 | 0.585 | 0.475 | 0.41 | 0.441 | 0.298 | 0.297 | 0.295 | 0.286 | 0.313 | 1 | 1.21 | 1.14 | 0.658 | 0.989
NCI-H1395 | 0.982 | 0.954 | 0.972 | 0.904 | 0.586 | 0.574 | 0.619 | 0.676 | 0.485 | 0.475 | 0.468 | 0.426 | 0.407 | 0.402 | 0.389 | 1 | 0.969 | 0.883 | 0.571 | 0.926
